Results taken from ChEMBL document CHEMBL1147471, “Selecting against S1P3 enhances the acute cardiovascular tolerability of 3-(N-benzyl)aminopropylphosphonic acid S1P receptor agonists” (Bioorg Med Chem Lett, 2004).

Legend:
in vivo [1] = conditions: rat, iv, 1 mg/kg
in vivo [2] = conditions: rat, plasma, iv, 1 mg/kg
in vivo [3] = conditions: rat, iv, 1 mg/kg; remark: listed apart in the source

Vd (in vivo [1]): 1.4 L/kg
clearance (in vivo [2]): 0.552 L/h/kg
half-life (in vivo [3]): 2.1 h
Structure (SMILES): CCCCCCCCOc1c(Br)cc(CNCCCP(=O)(O)O)cc1OC
